Patent US9708259B2 (Hoffmann-La Roche Inc., priority 2013, dated 2017)
Changes are numbered by the printed parent chain. pEC50: −log10 of the molar value. Read-outs that look alike come from different tables or passages of the source.

Columns and labels:
human M1 = biological target: T1, human M1 (Homo sapiens, UniProt P11229); experiment: M1 PAM assay (FLIPR intracellular calcium), human M1; assay type: cell-based
T1 construct: expressed in transfected cells; host or cells: CHO cells
T1 sequence (P11229 1-460): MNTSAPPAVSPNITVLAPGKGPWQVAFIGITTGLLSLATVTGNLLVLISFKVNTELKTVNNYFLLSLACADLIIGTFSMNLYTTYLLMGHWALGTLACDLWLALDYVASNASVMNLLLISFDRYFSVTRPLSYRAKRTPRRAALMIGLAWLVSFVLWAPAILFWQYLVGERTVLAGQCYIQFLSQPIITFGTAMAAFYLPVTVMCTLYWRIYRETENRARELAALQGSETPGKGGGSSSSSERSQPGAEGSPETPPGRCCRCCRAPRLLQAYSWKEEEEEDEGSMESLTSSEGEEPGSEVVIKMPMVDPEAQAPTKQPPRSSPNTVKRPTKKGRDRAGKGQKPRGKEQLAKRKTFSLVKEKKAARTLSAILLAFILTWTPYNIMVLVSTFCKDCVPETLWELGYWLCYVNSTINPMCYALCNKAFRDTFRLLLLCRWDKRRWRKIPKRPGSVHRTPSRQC
Summary of the method: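 CHO cells expressing M1, Fluo-4AM-loaded, in HEPES/probenecid HBSS pH 7.4, 1% DMSO final. Compounds pre-incubated 2 min for agonist activity versus 30 nM acetylcholine control. For PAM activity, acetylcholine EC20 added after the 2 min pre-incubation, then 2 min more before FLIPR intracellular Ca2+ read.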

ratM1 = biological target: T2, ratM1 (Rattus norvegicus, UniProt P08482); experiment: M1 PAM assay (FLIPR intracellular calcium), rat M1; assay type: cell-based
T2 construct: expressed in transfected cells; host or cells: CHO cells (stated generally for the assay, not specifically for rat M1)
T2 sequence (P08482 1-460): T1 sequence (P11229 1-460) with A5V, T254S, P309S, R320K, A337G, I413V

[1] = CHO human M1 cells, FLIPR Ca2+, with EC20 of acetylcholine, first value of the cell, read-out: hM1 EC50
[2] = rat M1, FLIPR Ca2+, second value of the cell, read-out: ratM1 EC50

## Cn1cc(-c2ccc(Cn3cc(C(=O)N[C@H]4CCCC(F)(F)[C@@H]4O)c4c(F)cccc43)c(F)c2)cn1 [Example 103, N-((1S,2R)-3,3-difluoro-2-hydroxycyclohexyl)-4-fluoro-1-(2-fluoro-4-(1-methyl-1H-pyrazol-4-yl)benzyl)-1H-indole-3-carboxamide]
Human M1; [1]
  pEC50: 8.15
ratM1; [2]
  pEC50: 7.49

## O=C(N[C@H]1CCCC[C@@H]1O)c1cn(Cc2ccc(-c3cncnc3)cc2)c2cccc(F)c12 [Example 158, 4-Fluoro-N-((1S,2S)-2-hydroxycyclohexyl)-1-(4-(pyrimidin-5-yl)benzyl)-1H-indole-3-carboxamide]
Human M1; [1]
  pEC50: 7.64
ratM1; [2]
  pEC50: 7.21

## Cn1cc(-c2ccc(Cn3cc(C(=O)NC4CCCOC4)c4c(F)cccc43)cc2)cn1 (stereo not shown) [Example 12, 4-fluoro-1-(4-(1-methyl-1H-pyrazol-4-yl)benzyl)-N-(tetrahydro-2H-pyran-3-yl)-1H-indole-3-carboxamide]
Human M1; [1]
  pEC50: 6.89
ratM1; [2]
  pEC50: 6.40

## CNC(=O)c1ccc(Cn2cc(C(=O)NC3CCOCC3)c3c(F)cccc32)c(F)c1 [Example 164, 4-Fluoro-1-(2-fluoro-4-(methylcarbamoyl)benzyl)-N-(tetrahydro-2H-pyran-4-yl)-1H-indole-3-carboxamide]
Human M1; [1]
  pEC50: 7.32
ratM1; [2]
  pEC50: 7.06

## Cn1cc(-c2ccc(Cn3cc(C(=O)N[C@H]4CCC[C@H]4O)c4c(F)cccc43)c(F)c2)cn1 [Example 24, 4-fluoro-1-(2-fluoro-4-(1-methyl-1H-pyrazol-4-yl)benzyl)-N-((1S,2R)-2-hydroxycyclopentyl)-1H-indole-3-carboxamide]
Human M1; [1]
  pEC50: 7.33
ratM1; [2]
  pEC50: 7.07

## Cn1cc(-c2ccc(Cn3cc(C(=O)NCC4COC4)c4c(F)cccc43)cc2)cn1 [Example 13, 4-fluoro-1-(4-(1-methyl-1H-pyrazol-4-yl)benzyl)-N-(oxetan-3-ylmethyl)-1H-indole-3-carboxamide]
Human M1; [1]
  pEC50: 6.72
ratM1; [2]
  pEC50: 6.60

## NC(=O)c1ccc(Cn2cc(C(=O)N[C@H]3CCCC[C@@H]3O)c3c(F)cccc32)cc1 [Example 77, 1-(4-carbamoylbenzyl)-4-fluoro-N-((1S,2S)-2-hydroxycyclohexyl)-1H-indole-3-carboxamide]
Human M1; [1]
  pEC50: 8.66
ratM1; [2]
  pEC50: 8.61

## Cn1cc(-c2ccc(Cn3cc(C(=O)N[C@H]4CCCC(F)(F)[C@@H]4O)c4c(F)cccc43)cc2)cn1 [Example 101, N-((1S,2R)-3,3-difluoro-2-hydroxycyclohexyl)-4-fluoro-1-(4-(1-methyl-1H-pyrazol-4-yl)benzyl)-1H-indole-3-carboxamide]
Human M1; [1]
  pEC50: 7.85
ratM1; [2]
  pEC50: 7.38

## Cc1ccc(F)c2c(C(=O)NC3CCOCC3)cn(Cc3ccc4c(cnn4C)c3)c12 [Example 134, 4-fluoro-7-methyl-1-((1-methyl-1H-indazol-5-yl)methyl)-N-(tetrahydro-2H-pyran-4-yl)-1H-indole-3-carboxamide]
Human M1
  pEC50: 7.60
ratM1
  pEC50: 7.12

## CCc1ccc(F)c2c(C(=O)N[C@H]3CCOC[C@@H]3O)cn(Cc3ccc(-c4cnn(C)c4)cc3)c12 [Example 109, 7-ethyl-4-fluoro-N-((3R,4S)-3-hydroxytetrahydro-2H-pyran-4-yl)-1-(4-(1-methyl-1H-pyrazol-4-yl)benzyl)-1H-indole-3-carboxamide]
Human M1; [1]
  pEC50: 7.21
ratM1; [2]
  pEC50: 7.10

## O=C(N[C@H]1CCCC[C@@H]1O)c1cn(Cc2ccn3ccnc3c2)c2cccc(F)c12 [Example 144, 4-fluoro-N-((1S,2S)-2-hydroxycyclohexyl)-1-(imidazo[1,2-a]pyridin-7-ylmethyl)-1H-indole-3-carboxamide]
Human M1
  pEC50: 7.15
ratM1
  pEC50: 6.76

## CNC(=O)c1ccc(Cn2cc(C(=O)NC3(C)CCOCC3)c3c(F)cccc32)cc1 [Example 123, 4-fluoro-1-[[4-(methylcarbamoyl)phenyl]methyl]-N-(4-methyloxan-4-yl)indole-3-carboxamide]
Human M1; [1]
  pEC50: 6.44
ratM1; [2]
  pEC50: 6.17

## COc1ccc(F)c2c(C(=O)N[C@H]3CCCC[C@@H]3O)cn(Cc3ccc(-c4cnn(C)c4)cc3F)c12 [Example 149, 4-fluoro-1-(2-fluoro-4-(1-methyl-1H-pyrazol-4-yl)benzyl)-N-((1S,2S)-2-hydroxycyclohexyl)-7-methoxy-1H-indole-3-carboxamide]
Human M1; [1]
  pEC50: 6.36
ratM1; [2]
  pEC50: 6.46

## Cc1ccc(F)c2c(C(=O)NC3CCOCC3)cn(Cc3ccc(-c4cnn(C)c4)cc3)c12 [Example 49, 4-fluoro-7-methyl-1-(4-(1-methyl-1H-pyrazol-4-yl)benzyl)-N-(tetrahydro-2H-pyran-4-yl)-1H-indole-3-carboxamide]
Human M1; [1]
  pEC50: 7.35
ratM1; [2]
  pEC50: 7.28

## Cn1cc(-c2ccc(Cn3cc(C(=O)N[C@H]4CCCC[C@@H]4O)c4c(F)ccc(C5CC5)c43)cc2)cn1 [Example 105, 7-cyclopropyl-4-fluoro-N-((1S,2S)-2-hydroxycyclohexyl)-1-(4-(1-methyl-1H-pyrazol-4-yl)benzyl)-1H-indole-3-carboxamide]
Human M1; [1]
  pEC50: 6.54
ratM1; [2]
  pEC50: 6.20

## O=C(N[C@H]1CCCC[C@@H]1O)c1cn(Cc2ccc(-n3ccnc3)nc2)c2cccc(F)c12 [Example 142, 1-((6-(1H-imidazol-1-yl)pyridin-3-yl)methyl)-4-fluoro-N-((1S,2S)-2-hydroxycyclohexyl)-1H-indole-3-carboxamide]
Human M1; [1]
  pEC50: 7.12
ratM1; [2]
  pEC50: 6.68

## CNC(=O)c1ccc(Cn2cc(C(=O)NC3CCC(F)(F)CC3)c3c(F)cccc32)cc1 [Example 117, N-(4,4-difluorocyclohexyl)-4-fluoro-1-[[4-(methylcarbamoyl)phenyl]methyl]indole-3-carboxamide]
Human M1; [1]
  pEC50: 7.85
ratM1; [2]
  pEC50: 7.54

## CO[C@H]1COC[C@@H]1NC(=O)c1cn(Cc2ccc(-c3cnn(C)c3)cc2)c2cccc(F)c12 [Example 8, 4-fluoro-N-[(3S,4R)-4-methoxyoxolan-3-yl]-1-[[4-(1-methylpyrazol-4-yl)phenyl]methyl]indole-3-carboxamide]
Human M1; [1]
  pEC50: 6.56
ratM1; [2]
  pEC50: 6.37

## Cn1cc(-c2ccc(Cn3cc(C(=O)NC4CCOCC4)c4c(F)cccc43)cn2)cn1 [Example 68, 4-fluoro-1-((6-(1-methyl-1H-pyrazol-4-yl)yridine-3-yl)methyl)-N-(tetrahydro-2H-pyran-4-yl)-1H-indole-3-carboxamide]
Human M1; [1]
  pEC50: 6.57
ratM1; [2]
  pEC50: 6.74

## N#Cc1ccc(Cn2cc(C(=O)N[C@H]3CCOC[C@@H]3O)c3c(F)cccc32)cc1 (single isomer, unassigned) [Example 54, 1-(4-cyanobenzyl)-4-fluoro-N-((3R,4S) or (3S,4R)-3-hydroxytetrahydro-2H-pyran-4-yl)-1H-indole-3-carboxamide]
Human M1
  pEC50: 7.16
ratM1
  pEC50: 6.91

## CNC(=O)c1ccc(Cn2cc(C(=O)NC3CCOC(C)C3)c3c(F)cccc32)cc1 (stereo not shown) [Example 127, 4-fluoro-1-[[4-(methylcarbamoyl)phenyl]methyl]-N-(2-methyloxan-4-yl)indole-3-carboxamide]
Human M1; [1]
  pEC50: 7.72
ratM1; [2]
  pEC50: 7.59

## Cn1cc(-c2ccc(Cn3cc(C(=O)NC4CC(F)(F)C4)c4c(F)cccc43)cc2)cn1 [Example 9, N-(3,3-difluorocyclobutyl)-4-fluoro-1-(4-(1-methyl-1H-pyrazol-4-yl)benzyl)-1H-indole-3-carboxamide]
Human M1; [1]
  pEC50: 6.44
ratM1; [2]
  pEC50: 6.39

## Cn1cc(-c2ccc(Cn3cc(C(=O)NC4CCOCC4)c4c(F)cccc43)c(F)c2)cn1 [Example 21, 4-fluoro-1-(2-fluoro-4-(1-methyl-1H-pyrazol-4-yl)benzyl)-N-(tetrahydro-2H-pyran-4-yl)-1H-indole-3-carboxamide]
Human M1; [1]
  pEC50: 7.22
ratM1; [2]
  pEC50: 6.76

## O=C(N[C@H]1CCOC[C@@H]1O)c1cn(Cc2ccc(-n3cncn3)nc2)c2cccc(F)c12 [Example 78, 1-((6-(1H-1,2,4-triazol-1-yl)yridine-3-yl)methyl)-4-fluoro-N-((3R,4S)-3-hydroxytetrahydro-2H-pyran-4-yl)-1H-indole-3-carboxamide]
Human M1; [1]
  pEC50: 6.28
ratM1; [2]
  pEC50: 6.14

## CNC(=O)c1ccc(Cn2cc(CC(=O)N[C@H]3CCCC[C@@H]3O)c3c(F)cccc32)cc1 [Example 99]
Human M1; [1]
  pEC50: 7.27
ratM1; [2]
  pEC50: 6.71

## Cn1cc(-c2ccc(Cn3cc(C(=O)NCC4(O)CC4)c4c(F)cccc43)c(F)c2)cn1 [Example 97, 4-fluoro-1-(2-fluoro-4-(1-methyl-1H-pyrazol-4-yl)benzyl)-N-((1-hydroxycyclopropyl)methyl)-1H-indole-3-carboxamide]
Human M1; [1]
  pEC50: 6.33
ratM1; [2]
  pEC50: 5.72
